Experimental data published in the NIST ThermoML archive (doi:10.1016/j.jct.2016.12.029).

Details: Gas, Buoyancy - hydrostatic balance with magnetic suspension - one sinker

C=C(F)C(F)(F)F [2,3,3,3-tetrafluoro-1-propene]
Details | mass density [kg/m3]
265.46 K, 101.2 kPa | 5.404
265.48 K, 207.2 kPa | 11.507
270.36 K, 101 kPa | 5.279
270.38 K, 164.6 kPa | 8.792
270.38 K, 250.3 kPa | 13.798
275.39 K, 106.2 kPa | 5.448
275.4 K, 208.6 kPa | 11.064
275.42 K, 303.7 kPa | 16.657
280.28 K, 103.6 kPa | 5.208
280.29 K, 176.6 kPa | 9.076
280.29 K, 274 kPa | 14.527
280.29 K, 356.2 kPa | 19.43
285.27 K, 258.8 kPa | 13.34
285.28 K, 104.7 kPa | 5.162
285.28 K, 164.2 kPa | 8.23
285.28 K, 358.5 kPa | 19.078
290.38 K, 102.2 kPa | 4.937
290.39 K, 184.5 kPa | 9.113
290.4 K, 308.8 kPa | 15.792
290.4 K, 421.2 kPa | 22.298
295.4 K, 101.7 kPa | 4.829
295.4 K, 196.9 kPa | 9.565
295.4 K, 400.6 kPa | 20.565
295.4 K, 600.7 kPa | 32.885
295.41 K, 305.3 kPa | 15.255
295.41 K, 510.2 kPa | 27.092
300.2 K, 668.8 kPa | 36.434
300.21 K, 108 kPa | 5.039
300.21 K, 218.9 kPa | 10.489
300.21 K, 324 kPa | 15.933
300.21 K, 439.4 kPa | 22.291
300.21 K, 545.8 kPa | 28.564
